Assay: Stability of crystalline form against polymorphic transformation at 60% relative humidity (PXRD comparison, FIG. 2)
Format: physicochemical
Text: FIG. 2 illustrates an X-ray powder diffraction pattern of form X of dexLansoprazole compared with the same form X after a week at 60% relative humidity.
As used herein in connection with form X, the term “stable” refers to stability against transformation, in which no more than about 20% of a polymorphic form transforms to another form under no less than about 60% relative humidity at about room temperature. When made according to the preferred embodiments of the present invention, less than 20% of form X transforms to any other form upon exposure to a RH of 60% at room temperature for a period of 7 days.
For ARL Powder diffractometer (All XRD Figures except FIG. 13):
Sample: Spin/Oscillate mode Range: 2-40 degrees two-theta Scan mode: Continuous scan Step size: 0.05 deg Scan rate: 3 deg./min

For `Cc1c(OCC(F)(F)F)ccnc1C[S@@+]([O-])c1nc2ccccc2[nH]1` [form X, (R)-2-[(3-methyl-4-(2,2,2-trifluoroethoxy)pyridin-2-yl)methylsulfinyl]-1H-benzoimidazole], which “amount of the form that transforms to any other form” value (exposure to RH of 60% at room temperature for 7 days) is on record?
Its value is “less than 20%”.

What about the “stability of the crystalline form (PXRD pattern after storage)” value (relative humidity of 60%, room temperature, 7 days, PXRD, FIG. 2) of the same molecule?
The value was “retains its PXRD pattern”.

Reference: patent US20100113527A1, “CRYSTALLINE FORMS OF DEXLANSOPRAZOLE” (Teva Pharmaceutical Industries Ltd., priority 2008, published 2010)
